{"source": "patent US20240316136A1", "about": "“ANESTHETIC METHOD OF SPOTTED SEABASS WITH PLANT ESSENTIAL OILS” (Shanghai Ocean University, priority 2024, published 2024)", "type_in_all_cases": "in vivo, Lateolabrax maculatus", "key": {"[1]": {"tested_on": "spotted seabass", "assay": "Sedation, anesthesia induction and resuscitation time of spotted seabass in anesthetic bath", "set-up": "key to Stage IV (deep anesthesia) time / Resuscitation time / Stage I (light sedation) time / Stage II (deep sedation) time / Stage III (light anesthesia) time: —: No anesthetic effect", "description": "• 1. Healthy spotted seabass with uniform sizes and uniform respiration rates were selected and acclimated for 24 h. During the acclimatization period, the water temperature was 22±1° C., the salinity was 16%, the dissolved oxygen was 6 mg/L, pH was 7.5, and the fish-water ratio was 1:50. The metabolic wastes of the spotted seabass were discharged during acclimatization period. • 2. The emulsified Cinnamomum camphora essential oils were added to the aquariums respectively. The water temperature was controlled at 22±1° C. […] The spotted seabass were transferred to aquariums (5 fish per aquarium) with different concentrations of the Cinnamomum camphora essential oil, MS-222 and linalool anesthetics, and anesthetic concentrations, sedation concentrations and duration of anesthesia were recorded for the spotted seabass. • 4. The fish were extracted once deep anesthesia was achieved. Recovery was defined as the restoration of fish to their typical swimming behavior; the resuscitation time of the spotted seabass were recorded. • 5. The optimal concentration range was obtained, and oxidative stress and tissue injury were measured. [table] One-way analysis of variance (ANOVA) was used to evaluate the data (anesthetic induction and recovery time) using SPSS 26.0 software (SPSS Inc., Chicago, IL, USA). The significant variation was determined using Duncan's multiple range test (P<0.05). Graphs were created using Origin software."}, "[2]": {"tested_on": "spotted seabass gill tissue", "assay": "Gill tissue histopathology by light microscope after anesthesia", "description": "• 1. Healthy spotted seabass with uniform sizes and uniform respiration rates were selected and acclimated for 24 h. During the acclimatization period, the water temperature was 22±1° C., the salinity was 16%, the dissolved oxygen was 6 mg/L, pH was 7.5, and the fish-water ratio was 1:50. The metabolic wastes of the spotted seabass were discharged during acclimatization period. • 2. The emulsified Cinnamomum camphora essential oils were added to the aquariums respectively. The water temperature was controlled at 22±1° C. The concentrations of the emulsified Cinnamomum camphora essential oil were 10, 20, 30, 50, 100, 150, 200 mg/L, respectively, and the same concentrations of MS-222 anesthesia solution and linalool solution were prepared at the same time. • 3. The spotted seabass were transferred to aquariums (5 fish per aquarium) with different concentrations of the Cinnamomum camphora essential oil, MS-222 and linalool anesthetics, and anesthetic concentrations, sedation concentrations and duration of anesthesia were recorded for the spotted seabass. • 4. The fish were extracted once deep anesthesia was achieved. Recovery was defined as the restoration of fish to their typical swimming behavior; the resuscitation time of the spotted seabass were recorded. • 5. The optimal concentration range was obtained, and oxidative stress and tissue injury were measured. […]"}, "[3]": {"tested_on": "spotted seabass", "assay": "Blood biochemical analysis (RBC, HCT, HGB)", "conditions": "after deep anesthesia; comparison between anesthetic groups, p<0.05", "description": "(§1) In accordance with the principles and guiding regulations established by the Animal Protection and Utilization Committee of Shanghai Ocean University (SHOU-DW-2022-059), 200 mg/L MS-222 was used to anesthetize fish. Venous-arterial blood samples were obtained from the caudal vein using a 1 mL syringe with 10% EDTA as an anticoagulant and then preserved in anticoagulation tubes. In addition, another portion of the blood was collected without anticoagulant, then kept at 4° C. for a duration of 12 hours for stationary. The coagulated blood was centrifuged at 4000×g for 20 min at 4° C. The serum was extracted and placed in the refrigerator at −40° C. for testing.\nRed blood cell count (RBC), haematocrit (HCT), and hemoglobin (HGB) in blood samples were measured in a Myriad Veterinary Automatic Blood Cell Analyser (BC-2800vet, Shenzhen, China)."}, "[4]": {"tested_on": "spotted seabass", "assay": "Energy metabolism indexes (glucose, lactic acid)", "conditions": "P<0.05", "description": "as §1\n(§2) Acid phosphatase (ACP), glucose (GLU) and lactic acid (LD) kits (Nanjing Jiancheng Bioengineering Institute, Nanjing, China) were used to measure ACP, GLU and LD levels."}, "[5]": {"tested_on": "spotted seabass", "assay": "Oxidative stress indicators (SOD, CAT, GSH-Px) in blood", "description": "as §1\nSuperoxide Dismutase (SOD), Catalase (CAT) and Glutathione Peroxidase (GSH-Px) kits (Nanjing Jiancheng Bioengineering Institute, Nanjing, China) were used to determine SOD, CAT and GSH-Px activities in blood."}, "[6]": {"tested_on": "spotted seabass", "assay": "Immunological indicators (ACP/AKP, IgM, LZM) in serum", "description": "as §1, §2\nLysozyme (LZM) activity was determined by the method of De Souza et al. Serum immunoglobulin M (IgM) concentration was measured using a fish ELISA kit (Nanjing Jiancheng Bioengineering Institute, Nanjing, China)."}, "[7]": {"conditions": "100 mg/L in water, listed as linalool"}, "[8]": {"conditions": "after 24 h of recovery, vs MS-222 and Cinnamomum camphora essential oil"}, "[9]": {"conditions": "after 24 h of recovery, vs initial"}}}
{"smiles": "C=CC(C)(O)CCC=C(C)C", "note": "(centres unmarked) [Linalool, 1,6-Octadien-3-ol,3,7-dimethyl]", "values": [{"measurement": "Resuscitation time", "setting": "[1]; 5 mg/L in water", "value": "—"}, {"measurement": "Stage I (light sedation) time", "setting": "[1]; 5 mg/L in water", "value": "—"}, {"measurement": "Stage II (deep sedation) time", "setting": "[1]; 5 mg/L in water", "value": "—"}, {"measurement": "Stage III (light anesthesia) time", "setting": "[1]; 5 mg/L in water", "value": "—"}, {"measurement": "Stage IV (deep anesthesia) time", "setting": "[1]; 5 mg/L in water", "value": "—"}, {"measurement": "Resuscitation time", "setting": "[1]; 10 mg/L in water", "value": "—"}, {"measurement": "Stage I (light sedation) time", "setting": "[1]; 10 mg/L in water", "value": "88.67 ± 3.21", "unit": "s"}, {"measurement": "Stage II (deep sedation) time", "setting": "[1]; 10 mg/L in water", "value": "—"}, {"measurement": "Stage III (light anesthesia) time", "setting": "[1]; 10 mg/L in water", "value": "—"}, {"measurement": "Stage IV (deep anesthesia) time", "setting": "[1]; 10 mg/L in water", "value": "—"}, {"measurement": "Resuscitation time", "setting": "[1]; 20 mg/L in water", "value": "—"}, {"measurement": "Stage I (light sedation) time", "setting": "[1]; 20 mg/L in water", "value": "70.00 ± 3.00", "unit": "s"}, {"measurement": "Stage II (deep sedation) time", "setting": "[1]; 20 mg/L in water", "value": "97.00 ± 4.58", "unit": "s"}, {"measurement": "Stage III (light anesthesia) time", "setting": "[1]; 20 mg/L in water", "value": "—"}, {"measurement": "Stage IV (deep anesthesia) time", "setting": "[1]; 20 mg/L in water", "value": "—"}, {"measurement": "Resuscitation time", "setting": "[1]; 30 mg/L in water", "value": "—"}, {"measurement": "Stage I (light sedation) time", "setting": "[1]; 30 mg/L in water", "value": "60.00 ± 3.00", "unit": "s"}, {"measurement": "Stage II (deep sedation) time", "setting": "[1]; 30 mg/L in water", "value": "84.67 ± 3.51", "unit": "s"}, {"measurement": "Stage III (light anesthesia) time", "setting": "[1]; 30 mg/L in water", "value": "103.33 ± 3.51", "unit": "s"}, {"measurement": "Stage IV (deep anesthesia) time", "setting": "[1]; 30 mg/L in water", "value": "—"}, {"measurement": "Resuscitation time", "setting": "[1]; 50 mg/L in water", "value": "235.00 ± 2.00", "unit": "s"}, {"measurement": "Stage I (light sedation) time", "setting": "[1]; 50 mg/L in water", "value": "42.67 ± 3.51", "unit": "s"}, {"measurement": "Stage III (light anesthesia) time", "setting": "[1]; 50 mg/L in water", "value": "115.00 ± 4.00", "unit": "s"}, {"measurement": "Stage IV (deep anesthesia) time", "setting": "[1]; 50 mg/L in water", "value": "323.33 ± 2.52", "unit": "s"}, {"measurement": "Resuscitation time", "setting": "[1]; 100 mg/L in water", "value": "255.33 ± 2.08", "unit": "s"}, {"measurement": "Stage I (light sedation) time", "setting": "[1]; 100 mg/L in water", "value": "31.67 ± 1.15", "unit": "s"}, {"measurement": "Stage III (light anesthesia) time", "setting": "[1]; 100 mg/L in water", "value": "103.67 ± 2.52", "unit": "s"}, {"measurement": "Stage IV (deep anesthesia) time", "setting": "[1]; 100 mg/L in water", "value": "213.00 ± 1.73", "unit": "s"}, {"measurement": "Resuscitation time", "setting": "[1]; [7]", "value": 344.00, "unit": "s"}, {"measurement": "Stage IV (deep anesthesia) time", "setting": "[1]; [7]", "value": 155.33, "unit": "s"}, {"measurement": "Resuscitation time", "setting": "[1]; 150 mg/L in water", "value": "270.00 ± 3.00", "unit": "s"}, {"measurement": "Stage I (light sedation) time", "setting": "[1]; 150 mg/L in water", "value": "22.33 ± 2.52", "unit": "s"}, {"measurement": "Stage II (deep sedation) time", "setting": "[1]; 150 mg/L in water", "value": "44.00 ± 2.65", "unit": "s"}, {"measurement": "Stage III (light anesthesia) time", "setting": "[1]; 150 mg/L in water", "value": "91.67 ± 1.53", "unit": "s"}, {"measurement": "Stage IV (deep anesthesia) time", "setting": "[1]; 150 mg/L in water", "value": "155.33 ± 3.51", "unit": "s"}, {"measurement": "Resuscitation time", "setting": "[1]; 200 mg/L in water", "value": "310.00 ± 3.00", "unit": "s"}, {"measurement": "Stage I (light sedation) time", "setting": "[1]; 200 mg/L in water", "value": "16.00 ± 1.00", "unit": "s"}, {"measurement": "Stage II (deep sedation) time", "setting": "[1]; 200 mg/L in water", "value": "37.00 ± 1.73", "unit": "s"}, {"measurement": "Stage III (light anesthesia) time", "setting": "[1]; 200 mg/L in water", "value": "86.00 ± 2.65", "unit": "s"}, {"measurement": "Stage IV (deep anesthesia) time", "setting": "[1]; 200 mg/L in water", "value": "141.00 ± 5.29", "unit": "s"}, {"measurement": "Optimal anesthetic concentration", "setting": "[1]; criterion: induction in around 3 min and recovery within 5 min", "value": 100, "unit": "mg/L"}, {"measurement": "Concentration showing deep sedation", "setting": "[1]; in vivo", "value": 20, "unit": "mg/L"}, {"measurement": "Concentration showing light anesthesia effect (Stage III)", "setting": "[1]; in vivo", "value": 30, "unit": "mg/L"}, {"measurement": "Concentration showing light sedation effect (Stage I)", "setting": "[1]; in vivo", "value": 10, "unit": "mg/L"}, {"measurement": "Minimum concentration required to achieve profound anesthesia (Stage IV)", "setting": "[1]; in vivo, iv", "value": 50, "unit": "mg/L"}, {"measurement": "Gill tissue histopathological changes", "setting": "[2]", "value": "swollen lamellar epithelium"}, {"measurement": "Percentage of hematocrit", "setting": "[3]", "value": "lower"}, {"measurement": "Glucose concentration", "setting": "[4]; [8]", "value": "higher"}, {"measurement": "Lactic acid concentration", "setting": "[4]; [8]", "value": "lower"}, {"measurement": "Glucose concentration", "setting": "[4]; after anesthesia, comparison between anesthetic groups", "value": "Greater"}, {"measurement": "Lactic acid level", "setting": "[4]; after anesthesia, vs MS-222 and Cinnamomum camphora essential oil", "value": "greater"}, {"measurement": "GSH-Px activity", "setting": "[5]; [9]", "value": "still higher than the initial levels"}, {"measurement": "SOD activity", "setting": "[5]; [9]", "value": "still higher than the initial levels"}, {"measurement": "SOD, CAT and GSH-Px activities", "setting": "[5]; after anesthesia", "value": "increasing trend"}, {"measurement": "IgM concentration", "setting": "[6]; after anesthesia", "value": "decreased"}, {"measurement": "LZM activity", "setting": "[6]; after anesthesia, change from initial", "value": "increased"}, {"measurement": "LZM activity", "setting": "[6]; after anesthesia, comparison between anesthetic groups, P<0.05", "value": "higher"}, {"measurement": "ACP activity", "setting": "[6]; after anesthesia, vs MS-222 and Cinnamomum camphora essential oil, P<0.05", "value": "higher"}, {"measurement": "AKP activity", "setting": "[6]; on exposure to anesthetic", "value": "increased"}]}
